Tests used:
[1] = Competitive antagonist activity at human CB2R expressed in CHO cell membranes assessed as rightward shift of N-cycloheptyl-1,2-dihydro-5-bromo-1-(4-fluoro benzyl)-6-methyl-2-oxo-pyridine-3-carboxamide-induced GTPgammaS binding by measuring N-cycloheptyl-1,2-dihydro-5-bromo-1-(4-fluoro benzyl)-6-methyl-2-oxo-pyridine-3-carboxamide EC50 at 1000
[2] = Competitive antagonist activity at human CB2R expressed in CHO cell membranes assessed as rightward shift of N-cycloheptyl-1,2-dihydro-5-bromo-1-(4-fluoro benzyl)-6-methyl-2-oxo-pyridine-3-carboxamide-induced GTPgammaS binding by measuring N-cycloheptyl-1,2-dihydro-5-bromo-1-(4-fluoro benzyl)-6-methyl-2-oxo-pyridine-3-carboxamide EC50 at 300
[3] = Competitive antagonist activity at human CB2R expressed in CHO cell membranes assessed as rightward shift of N-cycloheptyl-1,2-dihydro-5-bromo-1-(4-fluoro benzyl)-6-methyl-2-oxo-pyridine-3-carboxamide-induced GTPgammaS binding by measuring N-cycloheptyl-1,2-dihydro-5-bromo-1-(4-fluoro benzyl)-6-methyl-2-oxo-pyridine-3-carboxamide EC50 at 100
[4] = Non-competitive antagonist activity at human CB2R expressed in CHO cell membranes assessed as N-cycloheptyl-1,2-dihydro-1-(4-fluorobenzyl)-6-methyl-2-oxo-5-phenyl-pyridine-3-carboxamide EC50 at 300 nM preincubated with compound for 30 mins followed by GTPgammaS addition and measured after 90 mins by [35S]GTPgammaS assay (Rvb = 19.4 nM)
[5] = Non-competitive antagonist activity at human CB2R expressed in CHO cell membranes assessed as N-cycloheptyl-1,2-dihydro-1-(4-fluorobenzyl)-6-methyl-2-oxo-5-phenyl-pyridine-3-carboxamide EC50 at 100 nM preincubated with compound for 30 mins followed by GTPgammaS addition and measured after 90 mins by [35S]GTPgammaS assay (Rvb = 19.4 nM)
[6] = Non-competitive antagonist activity at human CB2R expressed in CHO cell membranes assessed as N-cycloheptyl-1,2-dihydro-1-(4-fluorobenzyl)-6-methyl-2-oxo-5-phenyl-pyridine-3-carboxamide EC50 at 1000 nM preincubated with compound for 30 mins followed by GTPgammaS addition and measured after 90 mins by [35S]GTPgammaS assay (Rvb = 19.4 nM)

## COc1ccc(-c2cc(C(=O)NC3CCCCCC3)c(=O)n(Cc3ccc(F)cc3)c2C)cc1
[1]
  EC50: 711 nM
[2]
  EC50: 192 nM
[3]
  EC50: 81 nM
[4]
  EC50: 62 nM
[5]
  EC50: 102 nM
[6]
  EC50: 103 nM
